According to the NIST ThermoML archive (doi:10.1007/s10765-011-0995-x):

Columns and labels:
[1] = xn = mol fraction of the nth substance listed; settings: 101 kPa, Liquid; for speed of sound: Pulse-echo method
[2] = refractive index (Na D-line) (dimensionless); xn = mol fraction of the nth substance listed; settings: 101 kPa, Liquid, Standard Abbe refractometry

Cc1ccccc1Cl [2-chlorotoluene] + CCCCCCCCCCO
Settings	mass density, [1] [kg/m3]	refractive index, [2]	speed of sound, [1] [m/s]	viscosity, [1] [mPa·s]
298.15 K, x1 = 0.0734	838.4	1.4377	1373.9	10
298.15 K, x1 = 0.1537	852.15	1.4413	1366.5	8.277
298.15 K, x1 = 0.2064	861.61	1.444	1361.3	7.283
298.15 K, x1 = 0.2747	874.4	1.4479	1354.2	6.13
298.15 K, x1 = 0.345	888.32	1.4524	1346.6	5.101
298.15 K, x1 = 0.4107	902.06	1.4569	1339.4	4.289
298.15 K, x1 = 0.489	919.52	1.4628	1330.9	3.477
298.15 K, x1 = 0.5555	935.39	1.4685	1323.8	2.906
298.15 K, x1 = 0.6158	950.72	1.4741	1317.6	2.468
298.15 K, x1 = 0.6813	968.52	1.4806	1311.5	2.075
298.15 K, x1 = 0.7475	987.82	1.4878	1306	1.742
298.15 K, x1 = 0.8205	1010.87	1.4966	1301.2	1.446
298.15 K, x1 = 0.884	1032.61	1.505	1298.7	1.235
298.15 K, x1 = 0.9469	1056.04	1.514	1298.5	1.062
298.15 K, x1 = 1	1077.41	1.5219	1301.2	0.943
303.15 K, x1 = 0.0734	834.73	1.4359	1358.4	8.289
303.15 K, x1 = 0.1537	848.3	1.4394	1350.5	6.862
303.15 K, x1 = 0.2064	857.65	1.4423	1344.9	6.042
303.15 K, x1 = 0.2747	870.31	1.4462	1337.3	5.103
303.15 K, x1 = 0.345	884.08	1.4505	1329.3	4.266
303.15 K, x1 = 0.4107	897.72	1.4549	1321.7	3.603
303.15 K, x1 = 0.489	915.05	1.4608	1312.7	2.952
303.15 K, x1 = 0.5555	930.83	1.4664	1305.2	2.486
303.15 K, x1 = 0.6158	946.09	1.4719	1298.8	2.133
303.15 K, x1 = 0.6813	963.84	1.4784	1292.5	1.806
303.15 K, x1 = 0.7475	983.1	1.4855	1286.9	1.538
303.15 K, x1 = 0.8205	1006.13	1.4941	1282.3	1.294
303.15 K, x1 = 0.884	1027.9	1.5023	1280	1.124
303.15 K, x1 = 0.9469	1051.38	1.5111	1280.6	0.984
303.15 K, x1 = 1	1072.83	1.5189	1284.1	0.885
308.15 K, x1 = 0.0734	831.1	1.4339	1339.3	6.889
308.15 K, x1 = 0.1537	844.55	1.4378	1330.9	5.734
308.15 K, x1 = 0.2064	853.84	1.4406	1324.9	5.078
308.15 K, x1 = 0.2747	866.4	1.4445	1316.8	4.313
308.15 K, x1 = 0.345	880.08	1.4489	1308.2	3.637
308.15 K, x1 = 0.4107	893.62	1.4534	1300	3.08
308.15 K, x1 = 0.489	910.82	1.4592	1290.6	2.528
308.15 K, x1 = 0.5555	926.51	1.4648	1283.1	2.134
308.15 K, x1 = 0.6158	941.68	1.4702	1276.7	1.837
308.15 K, x1 = 0.6813	959.32	1.4767	1270.8	1.566
308.15 K, x1 = 0.7475	978.5	1.4839	1266.1	1.338
308.15 K, x1 = 0.8205	1001.49	1.4924	1262.5	1.135
308.15 K, x1 = 0.884	1023.23	1.5005	1261.6	0.995
308.15 K, x1 = 0.9469	1046.71	1.5092	1262.2	0.879
308.15 K, x1 = 1	1068.24	1.5169	1266.1	0.805

Cc1cccc(Cl)c1 [3-chlorotoluene] + CCCCCCCCCCO
Settings	mass density, [1] [kg/m3]	refractive index, [2]	speed of sound, [1] [m/s]	viscosity, [1] [mPa·s]
298.15 K, x1 = 0.0745	837.98	1.4371	1371.6	10.08
298.15 K, x1 = 0.1337	847.61	1.4394	1364.4	8.723
298.15 K, x1 = 0.2017	859.18	1.4424	1356	7.28
298.15 K, x1 = 0.2741	872.19	1.446	1347	5.927
298.15 K, x1 = 0.3471	886.08	1.4501	1338	4.762
298.15 K, x1 = 0.4139	899.55	1.4545	1329.9	3.862
298.15 K, x1 = 0.4616	909.68	1.4579	1324.3	3.322
298.15 K, x1 = 0.5532	930.44	1.4653	1314.9	2.496
298.15 K, x1 = 0.6282	948.88	1.4723	1308.1	1.985
298.15 K, x1 = 0.6772	961.72	1.4772	1304.1	1.724
298.15 K, x1 = 0.7447	980.55	1.4847	1300	1.429
298.15 K, x1 = 0.8245	1004.78	1.4947	1296.6	1.17
298.15 K, x1 = 0.8876	1025.62	1.5034	1296.2	1.016
298.15 K, x1 = 0.9433	1045.43	1.5117	1297.1	0.906
298.15 K, x1 = 1	1067.29	1.5207	1298.3	0.798
303.15 K, x1 = 0.0745	834.43	1.4353	1355.2	8.289
303.15 K, x1 = 0.1337	844.01	1.4378	1347	7.171
303.15 K, x1 = 0.2017	855.5	1.4408	1337.4	6.013
303.15 K, x1 = 0.2741	868.42	1.4445	1327.4	4.905
303.15 K, x1 = 0.3471	882.21	1.4488	1318	3.977
303.15 K, x1 = 0.4139	895.58	1.4533	1309.9	3.261
303.15 K, x1 = 0.4616	905.65	1.4567	1304.4	2.821
303.15 K, x1 = 0.5532	926.26	1.4641	1295.5	2.161
303.15 K, x1 = 0.6282	944.59	1.4711	1289.3	1.744
303.15 K, x1 = 0.6772	957.36	1.4761	1285.8	1.523
303.15 K, x1 = 0.7447	976.11	1.4835	1281.9	1.282
303.15 K, x1 = 0.8245	1000.26	1.4932	1278.3	1.063
303.15 K, x1 = 0.8876	1021.06	1.5017	1276.7	0.934
303.15 K, x1 = 0.9433	1040.84	1.5099	1276.5	0.844
303.15 K, x1 = 1	1062.81	1.5189	1280.1	0.746
308.15 K, x1 = 0.0745	830.88	1.4334	1335	6.908
308.15 K, x1 = 0.1337	840.4	1.436	1325.8	6.001
308.15 K, x1 = 0.2017	851.82	1.4391	1315.4	5.022
308.15 K, x1 = 0.2741	864.64	1.443	1305	4.123
308.15 K, x1 = 0.3471	878.33	1.4473	1295.4	3.348
308.15 K, x1 = 0.4139	891.6	1.4518	1287.6	2.771
308.15 K, x1 = 0.4616	901.59	1.4553	1282.4	2.423
308.15 K, x1 = 0.5532	922.06	1.4628	1273.9	1.862
308.15 K, x1 = 0.6282	940.26	1.4697	1268.3	1.521
308.15 K, x1 = 0.6772	952.94	1.4747	1265.4	1.343
308.15 K, x1 = 0.7447	971.61	1.482	1261.9	1.142
308.15 K, x1 = 0.8245	995.7	1.4917	1258.4	0.96
308.15 K, x1 = 0.8876	1016.44	1.5	1257.5	0.851
308.15 K, x1 = 0.9433	1036.25	1.5082	1257.8	0.777
308.15 K, x1 = 1	1058.33	1.5169	1262.1	0.705
